# In patent US20260226034A1 (The Rockefeller University, priority 2023, published 2026):
# Biological target: NSP14 (Severe acute respiratory syndrome coronavirus 2, UniProt P0DTD1)
# Test: NSP14 MTase inhibition assay at 37° C. (MTase-Glo SAH detection)
# Type: biochemical, SARS-CoV-2
# Settings: 0.3 nM NSP14, 2.5 μM SAM, 2.5 μM GpppA RNA, 45 min at 37° C.; read-out: Nsp14 Mtase Inh. IC50
row,SMILES,IC50 [nM]
1,Cc1c(S(=O)(=O)c2ccc3[nH]ncc3c2)cc(C(=O)N[C@@H]2CCN(c3ccccc3C(F)(F)F)C2)n1C [A.103],5.1
2,"Cc1c(S(=O)(=O)c2ccc3nn[nH]c3c2)cc(C(=O)NCc2c(F)ccc3occc23)n1C [A.31, 4-((1H-benzo[d][1,2,3]triazol-6-yl)sulfonyl)-N-((5-fluorobenzofuran-4-yl)methyl)-1,5-dimethyl-1H-pyrrole-2-carboxamide]",315
3,Cc1c(S(=O)(=O)c2ccc3occc3c2)cc(C(=O)NCc2c(F)ccc3occc23)n1C [A.14],7.7
4,Cc1c(S(=O)(=O)c2ccc3[nH]ncc3c2)cc(C(=O)N[C@@H]2CCN(c3cnccc3C#N)C2)n1C [A.95],< 0.15
5,Cc1c(S(=O)(=O)c2ccccc2)cc(C(=O)NCc2cccnc2N2CCCC2)n1C [A.22],67
6,Cc1c(S(=O)(=O)c2ccc3[nH]ncc3c2)cc(C(=O)N[C@@H]2CCN(Cc3ccc(F)cn3)C2)n1C [A.104],4.3
7,Cc1c(S(=O)(=O)c2ccc3[nH]ncc3c2)cc(C(=O)N[C@@H]2CCN(c3cccn4nccc34)C2)n1C [A.59],0.18
8,Cc1c(S(=O)(=O)c2ccc3occc3c2)cc(C(=O)NCc2cccc3cnn(C)c23)n1C [A.8],1.8
9,Cc1c(S(=O)(=O)c2ccc3[nH]ncc3c2)cc(C(=O)N[C@@H]2CCN(c3ncccc3C(F)(F)F)C2)n1C [A.80],1.5
10,Cc1c(S(=O)(=O)c2ccc3[nH]ncc3c2)cc(C(=O)N[C@@H]2CCN(c3ncccn3)C2)n1C [A.64],0.78
11,Cc1c(S(=O)(=O)c2ccc3[nH]ncc3c2)cc(C(=O)N[C@@H]2CCN(c3ccncn3)C2)n1C [A.93],0.2
12,Cc1c(S(=O)(=O)c2ccc3[nH]ncc3c2)cc(C(=O)N[C@@H]2CCN(c3cccc4ccnn34)C2)n1C [A.55],0.9
13,Cc1c(S(=O)(=O)c2ccc3c(cnn3C)c2)cc(C(=O)NCc2c(F)ccc3cnn(C)c23)n1C [A.18],18
14,COc1ccccc1CNC(=O)c1cc(S(=O)(=O)c2ccc3c(cnn3C)c2)c(C)n1C [A.23],68
15,Cc1c(S(=O)(=O)c2ccc3[nH]ncc3c2)cc(C(=O)N[C@H]2CN(c3ncc(F)cn3)C[C@H]2F)n1C [A.48],33
16,CC(=O)Nc1ccc(S(=O)(=O)c2cc(C(=O)NCc3c(F)ccc4occc34)n(C)c2C)cc1 [A.30],243
17,Cc1c(S(=O)(=O)c2cc(F)c3[nH]nc(F)c3c2)cc(C(=O)N[C@@H]2CCN(c3ncc(F)cn3)C2)n1C [A.67],0.38
18,Cc1c(S(=O)(=O)c2ccc(F)cc2)cc(C(=O)NCc2cccc3cnn(C)c23)n1C [A.17],16
19,Cc1c(S(=O)(=O)c2ccc3[nH]ncc3c2)cc(C(=O)N[C@@H]2CCN(c3ccc(C(F)(F)F)cn3)C2)n1C [A.65],1
20,"Cc1cc(S(=O)(=O)c2cc(C(=O)NCc3c(F)ccc4occc34)n(C)c2C)cc2cn[nH]c12 [A.1, N-[(5-fluorobenzofuran-4-yl)methyl]-1,5-dimethyl-4-[(7-methyl-1H-indazol-5-yl)sulfonyl]pyrrole-2-carboxamide]",0.2

# Same assay, conditions: 37° C., 0.3 nM NSP14, 2.5 μM SAM, 2.5 μM GpppA RNA; read-out: Nsp14 Mtase Inh. IC50
row,SMILES,IC50 [nM]
1,Cc1c(S(=O)(=O)c2ccc3[nH]ncc3c2Cl)cc(C(=O)NCc2c(F)ccc3c2N(C)C(=O)C32CC2)n1C [B.143],0.4
2,Cc1c(S(=O)(=O)c2cc(F)c3ncccc3c2)cc(C(=O)NCc2cccc3cnn(C)c23)n1C [B.17],41.8
3,Cc1c(S(=O)(=O)c2ccc3[nH]ncc3c2)cc(C(=O)NCc2c(F)ccc3c2N(C)C(=O)C32CC2)n1C [B.145],< 0.15
4,Cc1c(S(=O)(=O)c2ccc3c(cnn3C)c2)cc(C(=O)NCc2cccnc2N2CCC(C(=O)O)C2)n1C (stereo not shown) [B.47],1.7
5,Cc1c(S(=O)(=O)c2ccc3[nH]nc(F)c3c2)cc(C(=O)NCc2cccc3cnn(C)c23)n1C [B.12],0.63
6,Cc1c(S(=O)(=O)c2ccc3[nH]ncc3c2)cc(C(=O)NC2CCc3cccc(F)c32)n1C (racemic) [B.110],0.38
7,Cc1c(S(=O)(=O)c2ccc3[nH]ncc3c2)cc(C(=O)NCc2c(Cl)cnn2C)n1C1CC1 [B.188],1.6
8,"Cc1c(S(=O)(=O)c2ccc3[nH]ncc3c2)cc(C(=O)N[C@H]2Cc3ccccc32)n1C (single isomer, unassigned) [B.171]",2.7
9,Cc1c(S(=O)(=O)c2cnc3[nH]ncc3c2)cc(C(=O)NCc2cccc3cnn(C)c23)n1C [B.30],4.6
10,Cc1c(S(=O)(=O)c2ccc3[nH]ncc3c2)cc(C(=O)NCc2cccc3ccc(=O)n(C)c23)n1C [B.11],2.1
11,Cc1c(S(=O)(=O)c2ccc3[nH]ncc3c2)cc(C(=O)NCc2c[nH]c(=O)c3ccccc23)n1C [B.21],0.54
12,Cc1c(S(=O)(=O)c2ccc3[nH]ncc3c2)cc(C(=O)NCc2cccc3c2N(C)C(=O)CC3)n1C [B.15],14
13,Cc1c(S(=O)(=O)c2ccc3[nH]ncc3c2)cc(C(=O)NCc2c(F)ccc3c2N(C)C(=O)C3(C)C)n1C [B.119],0.21
14,Cc1c(S(=O)(=O)c2cc(Cl)cc(C#N)c2)cc(C(=O)NCc2c(Cl)cnn2C)n1C [B.193],6.4
15,Cc1c(S(=O)(=O)c2ccc3[nH]ncc3c2)cc(C(=O)NCc2cccnc2C(F)(F)F)n1C [B.53],7
16,Cc1c(S(=O)(=O)c2ccc3[nH]ncc3c2)cc(C(=O)NC2Cc3ccccc32)n1C (stereo not shown) [B.120],1.2

row,SMILES,IC50 [nM]
1,Cc1c(S(=O)(=O)c2ccc3c(c2)c(O)nn3C)cc(C(=O)NCc2c(F)ccc3cnn(C4CC4)c23)n1C [B.111],142
2,Cc1c(S(=O)(=O)c2ccc3[nH]ncc3c2)cc(C(=O)NCc2c(Cl)cnn2C)n1CC(F)F [B.186],1.1
3,Cc1c(S(=O)(=O)c2ccc(C3CC3)cc2)cc(C(=O)NCc2cccc3cnn(C)c23)n1C [B.7],114
4,Cc1c(S(=O)(=O)c2ccc(C(F)(F)F)cc2)cc(C(=O)NCc2cccc3cnn(C)c23)n1C [B.6],35
5,Cc1c(S(=O)(=O)c2ccc3[nH]ncc3c2)cc(C(=O)NCc2c(F)ccc3cnn(C4CC4)c23)n1C [B.16],0.38
6,Cc1c(S(=O)(=O)c2ccc3[nH]ncc3c2)cc(C(=O)NCc2c(F)ccc3nnn(C4CC4)c23)n1C [B.81],< 0.15
7,Cc1c(S(=O)(=O)c2ccc3[nH]ncc3c2)cc(C(=O)NCc2ccc(=O)[nH]c2)n1C [B.104],27
8,Cc1cc(C)n(C)c(=O)c1CNC(=O)c1cc(S(=O)(=O)c2ccc3[nH]ncc3c2)c(C)n1C [B.164],0.85
9,"Cc1c(S(=O)(=O)c2ccc3[nH]ncc3c2)cc(C(=O)N[C@H]2CCc3c(F)ccc(F)c32)n1C (single isomer, unassigned) [B.139]",1.3
10,Cc1cc(S(=O)(=O)c2cc(C(=O)NCc3c(F)ccc4cnn(C5CC5)c34)n(C)c2C)cc2cn[nH]c12 [B.28],0.24
11,Cc1c(S(=O)(=O)c2ccc3c(=O)[nH]cnc3c2)cc(C(=O)NCc2cccc3cnn(C)c23)n1C [B.8],71
12,Cc1c(S(=O)(=O)c2ccc3[nH]ncc3c2)cc(C(=O)NCc2cccn3ncnc23)n1C [B.148],7.4
13,Cc1c(S(=O)(=O)c2cc(C3CC3)c3[nH]ncc3c2)cc(C(=O)NCc2cccc3cnn(C4CC4)c23)n1C [B.41],50
14,Cc1cc(S(=O)(=O)c2cc(C(=O)NCc3c(F)ccnc3N3CCC(C)(C(=O)O)C3)n(C)c2C)cc2cnn(C)c12 (racemic) [B.127],0.58
15,Cc1c(S(=O)(=O)c2ccc3[nH]ncc3c2)cc(C(=O)NCc2ccnn2C2CC2)n1C [B.167],7.8
16,Cc1c(S(=O)(=O)c2ccc3[nH]ncc3c2)cc(C(=O)NCc2ccccc2)n1C [B.67],2.6
